{
  "source": "patent US8658638B2",
  "about": "“Mineralocorticoid receptor antagonist and methods of use” (priority 2009, dated 2014)",
  "biological_target": "T1, human PR (progesterone receptor) (Homo sapiens, UniProt P06401)",
  "T1 construct": "expressed in transfected cells; host or cells: HEK293 (293-PR lysate)",
  "T1 sequence (P06401 1-933)": "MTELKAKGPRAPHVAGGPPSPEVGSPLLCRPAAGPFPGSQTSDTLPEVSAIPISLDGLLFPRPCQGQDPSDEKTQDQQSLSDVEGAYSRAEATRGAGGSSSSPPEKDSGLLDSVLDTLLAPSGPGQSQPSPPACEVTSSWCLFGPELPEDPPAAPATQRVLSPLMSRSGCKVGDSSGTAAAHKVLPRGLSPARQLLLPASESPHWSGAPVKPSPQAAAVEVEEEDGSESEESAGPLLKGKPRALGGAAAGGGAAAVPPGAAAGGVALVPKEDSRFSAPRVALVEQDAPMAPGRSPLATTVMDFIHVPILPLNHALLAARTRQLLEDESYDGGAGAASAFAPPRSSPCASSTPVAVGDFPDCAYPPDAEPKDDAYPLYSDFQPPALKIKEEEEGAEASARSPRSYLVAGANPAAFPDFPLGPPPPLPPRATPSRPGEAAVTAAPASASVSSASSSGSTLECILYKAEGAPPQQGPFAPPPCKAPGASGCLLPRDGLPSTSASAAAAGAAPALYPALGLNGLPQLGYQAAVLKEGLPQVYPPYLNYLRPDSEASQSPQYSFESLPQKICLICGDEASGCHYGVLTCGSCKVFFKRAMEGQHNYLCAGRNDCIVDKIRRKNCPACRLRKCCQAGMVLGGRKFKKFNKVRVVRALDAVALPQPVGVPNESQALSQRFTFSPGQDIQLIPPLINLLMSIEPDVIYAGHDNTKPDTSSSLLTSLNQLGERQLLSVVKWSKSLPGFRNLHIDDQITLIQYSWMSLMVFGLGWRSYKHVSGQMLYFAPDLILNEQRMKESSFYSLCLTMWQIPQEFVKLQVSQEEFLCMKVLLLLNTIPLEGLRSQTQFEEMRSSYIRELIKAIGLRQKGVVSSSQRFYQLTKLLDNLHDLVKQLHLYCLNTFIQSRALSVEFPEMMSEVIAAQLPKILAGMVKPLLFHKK",
  "test": "Steroid nuclear hormone receptor binding assay, PR",
  "settings": "[3H]-methyltrienolone, HEK293 lysate overexpressing human PR",
  "method": "Cell lysates from human embryonic kidney HEK293 cells overexpressing human MR (mineralocorticoid receptor), GR (glucocorticoid receptor), AR (androgen receptor), or PR (progesterone receptor) are used for receptor-ligand competition binding assays to determine Ki values.\nBriefly, steroid receptor competition binding assays are run in a buffer containing 20 mM HEPES buffer (pH=7.6), 0.2 mM EDTA, 75 mM NaCl, 1.5 mM MgCl2, 20% glycerol, 20 mM sodium molybdate, 0.2 mM DTT (dithiothreitol), 20 μg/mL aprotinin and 20 μg/mL leupeptin (assay buffer). Typically, steroid receptor binding assays include radio-labeled ligands, such as 0.25 nM [^3H]-aldosterone for MR binding, 0.7 nM [^3H]-dexamethasone for GR binding, 0.36 nM [^3H]-methyltrienolone for AR binding, and 0.29 nM [^3H]-methyltrienolone for PR binding, and either 20 μg 293-MR lysate, 20 μg 293-GR lysate, 22 μg 293-AR lysate, or 40 μg 293-PR lysate per well. Assays are typically run in 96-well format. Competing test compounds are added at various concentrations ranging from about 0.01 nM to 10 μM. Non-specific binding is determined in the presence of 500 nM aldosterone for MR binding, 500 nM dexamethasone for GR binding, or 500 nM methyltrienolone for AR and PR binding. […] After an incubation of 2 hours, plates are read in a Wallac Microbeta counter. […]",
  "data": [
    {"smiles": "O=c1[nH]c2cc(/C=C3\\c4ccccc4COc4cc(F)ccc43)ccc2n1[C@@H]1C[C@@H]2COCCN2C1", "note": "[Compound (I), 5-((E)-(3-fluorodibenzo[b,e]oxepin-11(6H)-ylidene)methyl)-1-((7R,8aR)-hexahydro-1H-pyrrolo[2,1-c][1,4]oxazin-7-yl)-1H-benzo[d]imidazol-2(3H)-one]", "values": [
      {"measurement": "Ki", "value": "~478", "unit": "nM"}
    ]}
  ]
}
